# Measurements taken from patent US20240109895A1, “OXASPIRO SUBSTITUTED PYRROLOPYRAZOLE DERIVATIVE, INTERMEDIATE THEREOF, AND PREPARATION METHOD THEREFOR” (SHANGHAI HAIYAN PHARMACEUTICAL TECHNOLOGY CO., LTD., priority 2020, published 2024).
# How the values were obtained:
# [1] = test system: cAMP; experiment: HTRF-cAMP cell assay
# [2] = test system: β-arrestin; experiment: β-arrestin cell assay
structure (smiles),measurement,setting,value
CC(C)[C@@H]1C[C@H](NCC[C@@]2(c3ccccn3)CCOC3(CCCC3)C2)c2ccnn21 [Compound I-1],EC50,"[1]; 0.75 h, read-out: cAMP EC50(nM)",6 nM
same,Emax,[1]; read-out: cAMP Emax(%) Morphine is 100%,86.4%
same,Emax,"[2]; 1.5 h, read-out: β-arrestin Emax(%) Morphine is 100%",1.3%
same,bias (cAMP versus β-arrestin),[2]; comparison of Table 1 and Table 2,good bias
